Here are results for 86 molecules from a melting point compilation (Tetko et al.; mined from patent text by program, amines drawn as free bases though some values may be those of a salt).

Structures are written as SMILES.

As usually defined, the melting point is the temperature of the solid-liquid transition.

With `Cc1ccc(Cc2cnc(NCCCNc3ccccn3)[nH]c2=O)cn1`, the melting point was 163 to 165 °C. The figure for `Cc1nc2c(c3c1[nH]c1ccccc13)C(=NO)CC(C)(C)C2` is 293 to 294 °C; for `CCCCCCCCCCNC(=O)c1cc(C(=O)NCCCCCCCCCC)cc(N(CC(=O)O)CC(=O)O)c1` it is 164 to 167 °C; for `COc1ccc(-c2cnc3cc4cnn(Cc5ccccc5)c4cc3n2)cc1F` it is 149 to 155 °C. For the molecule `CNC(=NC#N)NCCCCc1nccc(NC(N)=NCCOC)n1`, the melting point was in the range of 162 to 165 °C. Under `COc1cc(OC)nc(Oc2cccc(C(F)(F)F)c2C(=O)O)n1` stands 151 to 153 °C; under `CCCOC(=O)c1cncn1C(c1ccccc1)c1ccccc1`, 81 °C. Under `CCOC(=O)NC(=O)C(C#N)=CNc1c(C)cccc1C` stands 138 to 140 °C. In turn, `COc1cc(/C=C/C(=O)c2ccc(C(=O)O)cc2)cc(-c2cccs2)c1OC` registered a melting point of 231 °C. Under `CCc1cccc2c(S(=O)(=O)c3ccc(C)cc3)cnnc12` stands 133 to 134 °C; under `O=C(NC1C2CC3CC(C2)CC1C3)N1CCC2(C=Cc3ccccc32)CC1` (stereo unspecified), 189 to 191 °C.

The molecule `C#CCOc1cccc(OC)c1-c1nc2cnncc2[nH]1` gave a melting point of 259 °C. Under `Cc1ccc(C(=O)NCCO)cc1-n1c(C)cc(OCc2ccccc2CNC(=O)Nc2cc(C(C)(C)C)nn2-c2ccc(O)c(Cl)c2)c(Cl)c1=O` stands 195 to 196 °C; under `CCCCCCCCCCCCCCOc1ccc([N+](=O)[O-])cc1OCCCCCCCCCCCCCC`, 64 to 66 °C; under `Cc1nc(N2CCN(Cc3ccc(F)cc3)C2=O)sc1C(=O)NCc1ccc(C(F)F)o1`, 173 to 174 °C.

For `CC(C)(C)NC(=O)[C@@H]1C[C@H](O)CN1C(=O)[C@@H](O)[C@H](Cc1ccccc1)NC(=O)[C@H](CC(N)=O)NC(=O)OCc1ccccc1`, the melting point lay within 113 to 115 °C.

Molecule `O=C(OC(c1ccccc1)c1ccccc1)C12CCC1CN(Cc1ccccc1)C2` (stereo unspecified) gave a melting point of 96 to 99 °C. The figure for `CN(C)CCCNC(=O)c1ccccc1-c1cc2cc(Cl)c(Cl)cc2[nH]1` is 169 °C; for `O=[N+]([O-])c1ccc2nc(-c3ccccc3)cc(Cl)c2c1` it is 166 to 167 °C. The figure for `CSc1ncc(CO)c(N)n1` is 124 to 127 °C; for `Cc1cc(C2=NNC(C)(C#N)Cc3cc4c(cc32)OCO4)ccc1[N+](=O)[O-]` (stereo unspecified) it is 148 to 151 °C. Under `CCc1nc2c(N)nc3ccccc3c2n1CCOCCNC(=O)c1ccccc1` stands 188 to 191 °C; under `CC(C)OC(=O)CC1SCN(c2ccc(Cl)c(Cl)c2)C1=O` (stereo unspecified), 54 to 56 °C; under `O=C(O)c1ccccc1CN1C(=O)C2(COc3cc4c(cc32)OCO4)c2ccccc21` (stereo unspecified), > 250 °C. In the case of `CSc1cc(=O)c2ccc(F)cc2s1`, the melting point lay in the range of 120 to 121 °C. Under `Cc1csc(-c2sc(Br)cc2-c2ccc(F)cc2)c1` stands 113 to 116 °C. The figure for `COC(=O)C(CSC(=O)c1ccccc1)NC(=O)C(=O)NC(CSC(=O)c1ccccc1)C(=O)OC` (stereo unspecified) is 185 to 186 °C; for `COCCN(C)S(=O)(=O)c1ccccc1Nc1nc(Nc2cc3c(cc2OC)CCN(CC(=O)N(C)C)CC3)ncc1Cl` it is 67 to 76 °C; for `COC(=O)CCC1=C(C)C2=NC1(CCC(=O)OC)C(C)C1(CCC#N)NC(C)(C=C3C=CC(=N3)C=c3ccc([nH]3)=C2)C(CCC#N)=C1C` (stereo unspecified) it is 201 to 205 °C.

In turn, `Cc1ccc(O)c(Cn2c(NC3CCNC(CCN4CCOCC4)C3)nc3ccc(C=Cc4ccccc4)cc32)n1` (stereo unspecified) gave a melting point of 224 °C. The figure for `CC(C)(C)S(=O)C1CC(=O)N1CC(=O)CCc1ccccc1` (stereo unspecified) is 79 to 81 °C. Under `COc1ccc(CCNC(=O)CN(c2ccccc2)c2ccccc2)cc1OC` stands 88 to 93 °C.

`COc1cccc(N2CCN(C(=O)c3ccccc3C(c3ccc(O)cc3)c3ccc(O)cc3)CC2)c1` had a melting point of 229 to 234 °C. As to `CC(=O)NC[C@H]1CN(c2ccc(-n3nccc3-c3ccc(Br)cc3)c(F)c2)C(=O)O1`, the melting point fell in the range of 96.8 to 98.8 °C. Under `O=C(c1cc(-c2ccc(Cl)cc2)c(N2CCOCC2)s1)c1cc(-c2ccc(Cl)cc2)c(N2CCOCC2)s1` stands 135 to 136 °C; under `CCc1cccc(CC)c1NC(=O)CCSc1cc(C(C)(C)C)c(O)c(C(C)(C)C)c1`, 150 to 152 °C; under `COc1cc(C=CC(=O)COc2ccccc2)ccc1O`, 85 to 87 °C.

For the molecule `CC(=O)Oc1cc(C)ccc1C1CCN(CCCCNC(=O)c2ccc(-c3ccc(C#N)cc3)cc2)CC1`, the melting point was in the range of 128 to 130 °C.

`CC(C#N)c1cccc2c(-c3ccccc3)onc12` (stereo unspecified) showed a melting point of 109 to 112 °C. Turning to `CCOC(=O)C(C(=O)CBr)C1Cc2ccccc2C(c2ccccc2)N1` (stereo unspecified), the melting point lay within 107 to 109 °C. Under `CCOC(=O)C1=C(NC(=O)Nc2cc(C(=O)OC(C)C)c(F)cc2F)CCC1` stands 149 to 151 °C. Under `CCOC(=O)Cn1c(=O)c(=O)[nH]c2cc(C(F)(F)F)c(-n3ccc(C=O)c3)cc21` stands 236 to 237 °C; under `CNc1ccc(-c2nc3ccc(F)cc3s2)cc1`, 154 °C; under `COc1cc(C)ccc1C(=O)O`, 103 to 104 °C. In the case of `CCCc1ccc(-c2ccc(CCc3ccc(Cl)c(F)c3)cc2)cc1`, the melting point is 63.6 °C. The figure for `O=C(NCC1CC1)c1ccnc(N2CCN(Cc3ccc(F)cc3)C2=O)c1` is 135 to 137 °C; for `O=CNc1ccc(SC(CCc2ccc(Cl)cc2)Cn2ccnc2)cc1` (stereo unspecified) it is 91 to 94 °C; for `CCn1c(C=NNC(N)=S)cnc1[N+](=O)[O-]` it is 220 to 222 °C.

`CN1C(=O)[C@H](NC(=O)CCCc2ccccc2)N=C(c2ccccc2)c2ccccc21` had a melting point of 65 to 74 °C. Molecule `COc1ccc(C2CCN(C(N)=O)CC2)cc1CC1CCCC1` registered a melting point of 168 to 169 °C. The figure for `Cc1ccc(C)c(OCc2ccccc2C(=O)O)c1` is 162 to 163 °C. Under `Cc1ccc2c(c1)c1cc(-c3ccc(Cl)cc3Cl)c(=O)n(C)c1n2CCCN1C(=O)c2ccccc2C1=O` stands 249 °C; under `CCC#CCOc1cc(C=O)ccc1OC`, 38 to 39 °C; under `Cc1cc(Cl)cc(NC(=O)Cc2ccc(OC3(C(=O)O)CCCC3C)cc2)c1` (stereo unspecified), 180 to 182 °C.

Molecule `O=S(=O)(c1ccc(F)cc1)C(c1cc(F)ccc1F)c1cc(NCCO)ncc1Cl` (stereo unspecified) had a melting point of 157 to 158 °C.

Regarding `CC(O)CC1NC(=O)c2ccccc21` (stereo unspecified), the melting point lay in the range of 100 to 102 °C.

As for `O=C1Cc2ccc(C3CCCCC3)cc2O1`, the melting point lay within 80 to 81 °C. Under `CC(=O)N(C)CCc1coc2ccc3c(c12)CCCO3` stands 82 °C. The figure for `Cc1nc(-c2ccc(Cl)cc2)[nH]c1C(=O)N[C@H](C)[C@](O)(Cn1cncn1)c1ccc(F)cc1F` is 165 to 166 °C. The figure for `CC(=Cc1ccc(O)cc1)c1ccc2c(c1)C(C)(C)CC2(C)C` is 137 °C. Consider `CN(C(=O)Nc1nc(OCC(F)(F)F)nc(OCC(F)(F)F)n1)c1ccc(C(F)(F)F)cc1`, for which the melting point lay in the range of 130 to 132 °C. `CN1CC(CO)C=C2c3cccc4[nH]c(Cl)c(c34)CC21` (stereo unspecified) came in with a melting point of 207 °C. In the case of `C[C@@H]1Cc2ccsc2[C@H](C)N1CCNC(=O)c1ccc(C(F)(F)F)cc1` (relative stereo), the melting point was in the range of 88 to 91 °C. The figure for `N#CN=C(NCCO)NCCCSc1nccc(NC(N)=NCC(F)(F)F)n1` is 114 to 116 °C; for `C#CCS(=O)(=O)c1ccc(NC(C)=O)cc1` it is 175 to 179 °C; for `Cc1oc2ccccc2c(=O)c1NC(=O)C(=O)O` it is 208 °C. The figure for `CC(=O)OC1CSC(Oc2ccccc2C(C)=O)C(OC(C)=O)C1OC(C)=O` (stereo unspecified) is 112 °C; for `O=C1CCC(c2ccccc2Cl)=NN1` it is 114 to 116 °C; for `COC(=O)c1ccc(NN=CC(F)(F)F)cc1S(=O)(=O)NC(=O)Nc1nc(OC)cc(OC)n1` it is 201 to 202 °C.

Turning to `O=C(NCc1ccc2c(c1)OCO2)c1ccc2n1Cc1ccccc1N(C(=O)COc1ccc(Cl)cc1)C2`, the melting point fell in the range of 168 to 169 °C. The figure for `O=C(Cc1ccc(F)cc1)NC1CCN(Cc2ccc(Br)cc2)CC1` is 144 °C. Under `CCCc1c(OCC(C)CC(=O)NC(C)CCCc2cccnc2)ccc(C(C)=O)c1O` (stereo unspecified) stands 77 to 83 °C; under `CCCN(CCCCC12CC3CC(CC(C3)C1)C2)C(=O)NCCCc1ccncc1`, 110 °C. Under `CCN(C)C(=N)N[N+](=O)[O-]` stands 124 to 125 °C. In turn, `CC(C)NC(=O)NCCSCc1ccc(CN(C)C)o1` returned a melting point of 65 to 67 °C. Under `CC(Nc1ccc(Cl)c(Cl)c1)C(=O)NCC#N` (stereo unspecified) stands 134 to 135 °C; under `CCN1CC2CN(CC)CC(C1)C2O` (stereo unspecified), 61.5 °C. As for `Cc1cc2ncnn2nc1OCC(C)(C)CCS(N)(=O)=O`, the melting point lay within 214 to 215 °C.

Consider `CC(C)(C)c1cc2c(s1)Nc1ccccc1N=C2N1CCN[C@@H](CCc2ccccc2)C1`, for which the melting point is 93 to 96 °C. Under `CCOC(=O)C1(C(=O)OCC)CCC2(NCCc3cc(OC)c(OC)cc32)C(C2c3cc(OC)c(OC)cc3CCN2CC)C1` (stereo unspecified) stands 146 to 147 °C; under `O=C1N=c2ccc(Cl)cc2=N1`, 320 °C. In turn, `CCOCn1c(Br)c(Br)c(S(=O)(=O)C(F)(F)F)c1-c1ccc(Cl)cc1` returned a melting point of 133 to 135 °C. Under `C(=C\c1nc2ccccc2s1)/c1cccc(NCCCc2nnn[nH]2)c1` stands 168 to 169 °C; under `COc1ccc(COCc2nc(C(C)C)c(Sc3cc(Cl)cc(Cl)c3)n2CC(=O)c2ccccc2)cc1`, 205 to 211 °C.

In turn, `CCNc1cc2ccc(OC)c(OC)c2c2cc(C)ccc12` gave a melting point of 100 to 102 °C. The figure for `CC=CC(=O)c1c(CCC)[nH]c2cc(C(=O)OC)ccc12` is 153 to 154 °C.
